pIC50: −log10 of the molar value.
Tests used:
[1] = Solubility tests of ketone, alcohol and their mixture in IPA/DMSO/water at 70° C.; type: physicochemical; details: 1.113 g of material at 70° C., IPA 4 mL, Water 0.5 mL
Description: The aim of these experiments was to find the minimum amount of DMSO necessary to dissolve reagents and create homogeneous reaction mixture. One tube contained starting material, the second one a mixture of starting material and product (1/1) to simulate situation when reaction is half complete and the third tube contained product. Experiments were started in 5 mL of IPA/DMSO/water (8/1/1), where none of the mixtures was soluble at 70° C. DMSO was then added dropwise until full solubility could be reached. […] At these conditions, starting material was still partially undissolved. This experiment was used to determine the necessary amounts of DMSO to create a homogeneous reaction mixture (upon keeping the original quantities of IPA and water).

[2] = Solubility tests of the ketone substrate in solvents; type: physicochemical; details: 20 ° C.
Description: Solubility tests were conducted by adding (4-fluorophenyl)(4-(5-methyl-4H-pyrazol-3-ylamino)quinazolin-2-yl)methanone in small portions to a number of solvents until a suspended solid persisted. A number of solvents were selected for this study based on their suitability as co-solvents for the reaction.

[3] = biological target: human adenosine A3 receptor (Homo sapiens (Human), UniProt P0DMS8); experiment: Adenosine A3 receptor radioligand binding assay ([125I] AB-MECA)
Description: Incubations of a range of concentration of each compound were carried out in duplicates for 1 h at 25° C. in 25 mM HEPES, pH 7.4, 5 mM MgCl2, 1 mM CaCl2, 0.1% BSA, in the presence of 0.5 nM [^125I] AB-MECA. Non-specific binding was determined in the presence of 1 μM IB-MECA.

[4] = cynomolgus monkey, in vivo
phosphodiesterase PDE4 = experiment: Inhibition of phosphodiesterase PDE4; type: biochemical; details: human U937 cells; read-out: IC50 against phosphodiesterase PDE4
Description: Human U937 cells were used in this assay. The final DMSO concentration in the assay was about 1%. The assay was pre-incubated at 25° C. for 15 min and then incubated at 25° C. for 20 min in an incubation buffer (50 mM Tris-HCl, pH 7.5, 5 mM MgCl2). The assay was quantitated by measuring the amount of [^3H]adenosine.

Chain of human adenosine A3 receptor (P0DMS8 whole entry): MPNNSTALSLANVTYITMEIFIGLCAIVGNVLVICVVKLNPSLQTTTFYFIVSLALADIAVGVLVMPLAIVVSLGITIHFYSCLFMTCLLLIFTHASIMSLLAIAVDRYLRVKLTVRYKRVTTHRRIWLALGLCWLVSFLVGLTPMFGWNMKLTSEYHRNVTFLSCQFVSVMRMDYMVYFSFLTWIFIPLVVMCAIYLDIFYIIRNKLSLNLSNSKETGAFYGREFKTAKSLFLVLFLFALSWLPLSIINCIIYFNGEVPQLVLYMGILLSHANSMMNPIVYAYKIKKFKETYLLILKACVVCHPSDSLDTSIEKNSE

Compound	Result (solubility test) ([1]; DMSO 0.5 mL)	Result (solubility test) ([1]; DMSO 5.5 mL)	Result (solubility test) ([1]; DMSO 7.5 mL)	Hill Coefficient [3]	other results
CCO [Alcohol]	Not dissolved	Dissolved	Dissolved	–	–
CC1=NN=C(Nc2nc(C(=O)c3ccc(F)cc3)nc3ccccc23)C1 [(4-fluorophenyl)(4-(5-methyl-4H-pyrazol-3-ylamino)quinazolin-2-yl)methanone]	–	–	–	–	Solubility ([2]; solvent DMSO): 12000 to 149000 µg/mL; Solubility ([2]; solvent EtOAc): <6000 µg/mL; Solubility ([2]; solvent IPA-H2O (9:1)): <7000 µg/mL; Solubility ([2]; solvent PhMe): <9000 µg/mL; Solubility ([2]; solvent THF): <17000 µg/mL
Cc1cc(Nc2nc([C@@H](O)c3ccc(F)cc3)nc3ccccc23)n[nH]1 [S-isomer]	–	–	–	0.811	proportion of both enantiomers in plasma ([4]; po): almost equal proportions
Cc1cc(Nc2nc([C@H](O)c3ccc(F)cc3)nc3ccccc23)n[nH]1 [R-isomer]	–	–	–	1.14	share of the Cmax and AUC values determined for the racemic compound ([4]; male): over 85%
Cc1cc(Nc2nc(C(O)c3ccc(F)cc3)nc3ccccc23)n[nH]1 (racemic) [Racemate]	–	–	–	–	pIC50 (phosphodiesterase PDE4): 5.60
Cc1cc(Nc2nc(C(=O)c3ccc(F)cc3)nc3ccccc23)n[nH]1 [Ketone]	Not dissolved	Not dissolved	Not dissolved	–	–

Reference: patent US9295672B2, “Optically active pyrazolylaminoquinazoline, and pharmaceutical compositions and methods of use thereof” (Ambit Biosciences Corp., priority 2010, dated 2016)
